According to PMC9774946, “Trans-(±)-Kusunokinin Binding to AKR1B1 Inhibits Oxidative Stress and Proteins Involved in Migration in Aggressive Breast Cancer” (Antioxidants, 2022):

Legend:
[1] = biological target: T1, AKR1B1 (aldose reductase) (Homo sapiens, UniProt P15121); assay: aldose reductase inhibitor screening kit (NADPH consumption at […] nm); supported by CETSA in Hs578T and SKOV3 cells; type: biochemical
[2] = biological target: T1, AKR1B1 (aldose reductase); assay: aldose reductase inhibitor screening kit, NADPH consumption at […] nm; type: biochemical

| IC50 [1] [µM] | IC50 [2] [µM] | Structure (SMILES) |
| --- | --- | --- |
| 9.72 ± 0.18 |  | COc1ccc(C[C@H]2COC(=O)[C@@H]2Cc2ccc3c(c2)OCO3)cc1OC (racemic) [(±)KU, trans-(±)-kusunokinin] |
|  | 13.7 | COc1ccc(C[C@H]2COC(=O)[C@@H]2Cc2ccc(O[C@@H]3O[C@H](CO)[C@@H](O)[C@H](O)[C@H]3O)c(OC)c2)cc1OC [(−)AR, trans-(−)-arctiin] |
